Results reported in ChEMBL document CHEMBL1144839, “Cytotoxic bastadin 24 from the Australian sponge Ianthella quadrangulata” (J Nat Prod, 2008).

Tested on: HUVEC
Assay: Antiangiogenic activity in HUVEC cells assessed as inhibition of hEGF-induced tubular formation at 1 ug/mL after 24 hrs relative to control
Assay type: functional, Homo sapiens
Parameters: scale not given: the % may be the effect or the level left

O=C1N/C=C/c2ccc(c(Br)c2)Oc2cc(cc(Br)c2O)CCNC(=O)/C(=N/O)Cc2ccc(c(Br)c2)Oc2cc(cc(Br)c2O)C/C1=N\O [BASTADIN 7]
Activity: 37.3%
